Among the data in a melting point compilation (Tetko et al.) are melting point values, retold here.

A word on the melting point: it is the temperature, or range, at which the solid turns liquid. The molecule `CCNC(=O)[C@@H]1CCCN1C(=O)[C@H](CCCNC(=N)N)NC(=O)[C@H](CC(C)C)NC(=O)[C@@H](Cc1ccc2ccccc2c1)NC(=O)[C@H](Cc1ccc(O)cc1)NC(=O)[C@H](CO)NC(=O)[C@H](Cc1c[nH]c2ccccc12)NC(=O)[C@H](Cc1c[nH]cn1)NC(=O)[C@@H]1CCC(=O)N1` showed a melting point of 180 to 190 °C.
In the case of `CCOC(=O)c1c(Nc2ccccc2)n[nH]c1C`, the melting point lay in the range of 160 to 164 °C.
`CCCCNC1=CCC(C)n2c1ncc(C(=O)O)c2=O` (stereo not given) displayed a melting point of 135 to 137 °C.
Molecule `CC[C@H](C)[C@H](NC(=O)N(C)Cc1ccccn1)C(=O)NC(Cc1ccccc1)C(O)C(O)C(Cc1ccccc1)NC(=O)[C@@H](NC(=O)N(C)Cc1ccccn1)[C@@H](C)CC` (stereo not given in full) gave a melting point of 160 to 161 °C.
As for `CCC(COC(=O)CCc1cc(C(C)(C)C)c(O)c(C(C)(C)C)c1)(COC(=O)CCc1cc(C(C)(C)C)c(O)c(C(C)(C)C)c1)COC(=O)CCc1cc(C(C)(C)C)c(O)c(C(C)(C)C)c1`, the melting point is 66 to 79 °C.
`CC(C)(C)OC(=O)NC(Cc1cc(I)c(Oc2cc(I)c(OCC3CO3)c(I)c2)c(I)c1)C(=O)OCC1CO1` (stereo not given): the melting point stood at 105 °C.
The molecule `CC(C)=CCC/C(C)=C/CC/C(C)=C/CC/C=C(\C)CC/C=C(\C)CCC=C(C)C` gave a melting point of -5 °C.
Take `COC(C)c1nc2c(N)nc3ccccc3c2n1CCOCCNC(=O)NCCCCCCCCNC(=O)NCCOCCn1c(C(C)OC)nc2c(N)nc3ccccc3c21` (stereo not given): the melting point lay within 172 to 177 °C.
As for `CS(C)(=O)=NC(=O)c1cccc(Oc2ccc(C(F)(F)F)cc2Cl)c1`, the melting point lay in the range of 110 to 113 °C.
In the case of `Cc1cc(CCC(=O)OCC(COC(=O)CCc2cc(C)c(O)c(C(C)(C)C)c2)(COC(=O)CCc2cc(C)c(O)c(C(C)(C)C)c2)COC(=O)CCc2cc(C)c(O)c(C(C)(C)C)c2)cc(C(C)(C)C)c1O`, the melting point lay within 45 to 55 °C.
Consider `COc1cc(OC)c(/C=C/C(c2ccc(OC)c(NC(=O)C(C)OC(C)=O)c2)S(=O)(=O)C(/C=C/c2c(OC)cc(OC)cc2OC)c2ccc(OC)c(NC(=O)C(C)OC(C)=O)c2)c(OC)c1` (stereo not given), for which the melting point lay in the range of 179 to 180 °C.
In the case of `CC1(C)CC2(CC(C)(C)N1)NC(=O)N(CC(COc1ccc(C(C)(C)c3ccc(OCC(CN4C(=O)NC5(CC(C)(C)NC(C)(C)C5)C4=O)OC(=O)Nc4ccccc4)cc3)cc1)OC(=O)Nc1ccccc1)C2=O` (stereo not given), the melting point is 202 to 207 °C.
`CCOC(=O)c1cc2cc(OC)cc(NS(=O)(=O)c3cccs3)c2[nH]1`: the melting point fell in the range of 158 to 159 °C.
For `COCCOCOc1cc(C(ON=C(C(=O)O)c2csc(NC(c3ccccc3)(c3ccccc3)c3ccccc3)n2)C(=O)OC(c2ccccc2)c2ccccc2)cc(C#N)c1OCOCCOC` (stereo not given), the melting point amounted to 158 °C.
On to `O=C(c1ccccc1)c1ccc(C(Cl)(Cl)Cl)cc1`, for which the melting point lay within 109 to 111 °C.
As for `CCCCC(CC)CN1C(=O)C(=Cc2cc3c(s2)c2sc(-c4ccc(N(c5ccccc5)c5ccccc5)cc4)cc2n3CC(CC)CCCC)C(C)=C(C#N)C1=O` (stereo not given), the melting point was in the range of 137 to 140 °C.
Take `O=C(O)CCOC1COCCCC=CC2CC2(C(=O)NS(=O)(=O)C2CC2)NC(=O)C2(NC(=O)Nc3ccccc3)CC(OC(=O)N(CCC(=O)O)c3ccccc3)CN2C1=O` (stereo not given): the melting point was in the range of 142 to 144 °C.
As for `CCSC(=O)N(CC(C)C)CC(C)C`, the melting point was 6 °C.
`CC(C)(C)OC(=O)CC[C@H](NC(=O)CNC(=O)[C@H](CSC(c1ccccc1)(c1ccccc1)c1ccccc1)NC(c1ccccc1)(c1ccccc1)c1ccccc1)C(=O)OC(C)(C)C`: the melting point is 98 to 110 °C.
The figure for `CCOc1cc2c(cc1O)CCC1C2CCC2(C)C(O)CCC12` (stereo not given) is 154 to 155 °C.
Take `CCN(CC)CCN=S(=O)(c1ccccc1)c1cccnc1` (stereo not given): the melting point turned out to be 130 °C.
The figure for `Cc1cccc(-c2sc(N)nc2-c2ccc([N+](=O)[O-])c(O)c2)n1` is 260 to 262 °C.
On to `CCCCCCCCCCCCc1cc(-c2c(Cl)c(Cl)c(-c3cc(CCCCCCCCCCCC)c(Br)s3)c3nsnc23)sc1Br`, for which the melting point fell in the range of 60 to 61 °C.
In turn, `CCCCCCCCCCN(CCCCN(CCCN(CCCCCCCCCC)C(=O)c1cccc(O)c1O)C(=O)c1cccc(O)c1O)C(=O)c1cccc(O)c1O` gave a melting point of 63 to 65 °C.
The figure for `CCCCCCCCCCCCNC(=O)c1cccc(Sc2c(Nc3cc(C(=O)NCCCCCCCCCCCC)ccc3Cl)nn(-c3c(Cl)cc(Cl)cc3Cl)c2OC(=O)CCC)c1` is 111 to 113 °C; for `CCCCCCCCCCCCCCCCCCCCCCCCCC(=O)NC(COC1OC(CO)C(O)C(O)C1O)C(O)C(O)CCCCCCCCCCCCCC` (stereo not given) it is 190 °C.
On to `CCC(C)CNC(=O)C(CC(O)C(CC(C)C)NC(=O)C(Cc1cscn1)NC(=O)C(CC(=O)N(C)C1CCCCC1)Cc1cccc2ccccc12)C(C)(C)O` (mixture of isomers), for which the melting point lay in the range of 187 to 190 °C.
In turn, `Cc1cccc(-c2cc3ccccc3c(Cl)n2)n1` displayed a melting point of 142 to 144 °C.
Take `CCCCCC/C(=C\C=C\C(=O)O)c1ccc(OC)cc1`: the melting point is 88 to 89.5 °C.
The molecule `C=C(C)C(=O)OCCCCOC(=O)C(=C)C` came in with a melting point of -117 °C.
To `CCCCCCCCNC(=O)CO` belongs 80 °C; to `CN(Cc1ccccc1)Cc1c(-c2ccc([N+](=O)[O-])cc2)sc2c1c(=O)n(-c1ccccc1)c(=O)n2Cc1c(F)cccc1F`, 173 to 174 °C; to `CC(=O)OCCn1c([N+](=O)[O-])cnc1CO`, 138 to 145 °C.
The molecule `COC(=O)COC1C(NC(C)=O)C(OCc2ccccc2)OC(COCc2ccccc2)C1OC1OC(COCc2ccccc2)C(OCc2ccccc2)C(OCc2ccccc2)C1NC(C)=O` (stereo not given) returned a melting point of 221 to 223 °C.
In turn, `CC(C)C[C@H](NC(=O)[C@H](Cc1c[nH]cn1)NC(=O)[C@H](Cc1cccc2ccccc12)NC(=O)OCc1ccccc1)[C@@H](O)CC(=O)NN1CCN(c2cccc(C(F)(F)F)c2)CC1` yielded a melting point of 179 to 181 °C.
The figure for `FC(F)(F)c1ccc(-c2cc(-c3ccc(C(F)(F)F)cc3C(F)(F)F)c3ccc4c(-c5ccc(C(F)(F)F)cc5C(F)(F)F)cc(-c5ccc(C(F)(F)F)cc5C(F)(F)F)c5ccc2c3c54)c(C(F)(F)F)c1` is 290 °C; for `CCN(C(=O)NC)C1C(Cl)=C(OC2=C(Cl)C(N(CC)C(=O)NC)C(c3ccccc3C(F)(F)F)([N+](=O)[O-])C=C2)C=CC1(c1ccccc1C(F)(F)F)[N+](=O)[O-]` (stereo not given) it is 128 °C.
For the molecule `[C-]#[N+]C1Cc2ccccc2C(=C)c2ccccc21` (stereo not given), the melting point is 96 to 98 °C.
`CCC1(O)CC(OC2CC(N(C)C)C(OC3CC(O)C(OC4CCC(=O)C(C)O4)C(C)O3)C(C)O2)c2c(cc3c(c2O)C(=O)c2c(O)cccc2C3=O)C1C(=O)OC` (stereo not given): the melting point stood at 148 °C.
`CN(C)c1ccccn1` displayed a melting point of 0 °C.
Molecule `C=CC1=C(C)c2cc3[nH]c(cc4nc(cc5[nH]c(cc1n2)c(C)c5CCC(=O)OC(CN(C)C)CN(C)C)C(CCC(=O)OC(CN(C)C)CN(C)C)=C4C)c(C)c3C=C` showed a melting point of 181 to 190 °C.
The molecule `COc1cc(OC)c(/C=C/C(c2ccc(OC)c(NCC(=O)O)c2)S(=O)(=O)C(/C=C/c2c(OC)cc(OC)cc2OC)c2ccc(OC)c(NCC(=O)O)c2)c(OC)c1` (stereo not given) registered a melting point of 128 to 131 °C.
The figure for `Cc1ccc2cccc(OCc3c(Cl)ccc(S(=O)(=O)N4CCC[C@H]4C(=O)NC4CCN(C(=O)CN(C=NC(=O)OC(C)(C)C)NC(=O)OC(C)(C)C)CC4)c3Cl)c2n1` is 123 °C; for `CC1N=C(c2ccccc2)c2cc(Cl)ccc2-n2c1nnc2C(CN(C)C)c1ccccc1` (stereo not given) it is 200 to 203 °C; for `CC1(C)CC(Oc2nc(N(C3CC(C)(C)N(O)C(C)(C)C3)C3CC(C)(C)N(O)C(C)(C)C3)nc(N(C3CC(C)(C)N(O)C(C)(C)C3)C3CC(C)(C)N(O)C(C)(C)C3)n2)CC(C)(C)N1O` it is 233 to 236 °C.
In the case of `COc1cc2c(cc1I)C(=O)CC2`, the melting point lay in the range of 129 to 130 °C.
`C=CC(CC(O)C(CC1CCCCC1)NC(=O)C(Cc1c[nH]cn1)NC(=O)C(Cc1ccccc1)NC(=O)CN(CCNC(=O)OC(C)(C)C)C(=O)OC(C)(C)C)C(C)C` (stereo not given) showed a melting point of 109 °C.
Molecule `CC(OC(C)C(I)=C(I)I)C(I)=C(I)I` (stereo not given) returned a melting point of 43.5 to 44.5 °C.
In turn, `CCCCCCCCCCCCSc1nc(N(C2CC(C)(C)NC(C)(C)C2)C2CC(C)(C)NC(C)(C)C2)nc(N(C2CC(C)(C)NC(C)(C)C2)C2CC(C)(C)NC(C)(C)C2)n1` gave a melting point of 168 to 170 °C.
`O=C(NCC(O)CO)c1c(I)c(C(=O)NCC(O)CO)c(I)c(N(CCCN(C(=O)CO)c2c(I)c(C(=O)NCC(O)CO)c(I)c(C(=O)NCC(O)CO)c2I)C(=O)CO)c1I` (stereo not given) yielded a melting point of 234 to 236 °C.
`CC(C)c1oncc1S(=O)(=O)c1ccc(O)cc1` registered a melting point of 129 to 131 °C.
For `CCOCc1nc2c(N)nc3cc(-c4cccnc4)ccc3c2n1CC1CCN(C(=O)C2CCCO2)CC1` (stereo not given), the melting point was 191 to 192 °C.
`CC(C)CCCC(C)C1CCC2C3CC=C4CC(N(CCCNC(=O)CCCCCNc5ccc([N+](=O)[O-])cc5[N+](=O)[O-])S(=O)(=O)c5ccccc5[N+](=O)[O-])CCC4(C)C3CCC12C` (stereo not given) showed a melting point of 80 to 82 °C.
To `FC(F)(F)C(F)(F)C(F)(F)C(F)(F)C(F)(F)C(F)(F)C(F)(F)C(F)(F)CCC1(CCC(F)(F)C(F)(F)C(F)(F)C(F)(F)C(F)(F)C(F)(F)C(F)(F)C(F)(F)F)c2ccccc2-c2ccccc21` belongs 87 to 88 °C.
As to `O=C(O)CCC(CC=Cc1ccc(Cl)cc1)(C(=O)C=Cc1ccc(Cl)cc1)c1ccccc1` (stereo not given), the melting point was 178 to 180 °C.
Molecule `CC(=O)OC1C(=O)C2(C)C(O)CC3OCC3(OC(C)=O)C2C(OC(=O)c2ccccc2)C23OC(=O)OC2C(OC(=O)C(O)C(CC(C)C)NC(=O)OC(C)(C)C)C(C)=C1C3(C)C` (stereo not given) had a melting point of 159 °C.
`CCN(CC)CCN=S(=O)(c1cccs1)c1cccs1` displayed a melting point of 131 °C.
With `Nc1ncc(Br)cc1[N+](=O)[O-]`, the melting point is 209 °C.
`CCCCCCCCCCCCCCCCCCN(CCCCCCCCCCCCCCCCCC)C(=O)c1cc(NS(=O)(=O)c2ccc(S(=O)(=O)CCC#N)cc2)c2ccccc2c1O` came in with a melting point of 85 to 86 °C.
To `COc1cccc2c1CC[C@@H](C(=O)O)C2` belongs 150 to 152 °C.
